According to patent publication US20230181801A1, “MOLECULAR IODINE-INFUSED POLYMERS, ARTICLES, AND PRODUCTS, AND THEIR PREPARATION AND USE” (I2PURE CORP., priority 2021, published 2023):

Experiments:
[1] = Stability of molecular iodine in solvent at room temperature; type: physicochemical; settings: in ethanol, 15 days at room temperature in the dark
[2] = room temperature; cited from earlier work

SMILES: II [I2, molecular iodine]
- loss of molecular iodine [1]: over 15%
- maximum solubility in water [2]: 332 ppm
